{
  "source": "patent US20110294736A1",
  "about": "“COMPOUNDS AND METHODS FOR THE TREATMENT OF AUTOIMMUNE AND INFLAMMATORY DISEASE” (THE PROVOST, FELLOWS AND SCHOLARS OF THE HOLY AND UNDIVIDED …, priority 2008, published 2011)",
  "key": {"Spleen cells": {"test_system": "Spleen cells", "assay": "TLR agonist induced cytokines (ELISA) of spleen cells from treated mice", "assay_type": "in vivo", "conditions": "TriDAP 100 μg/mouse/day i.p. 5 days vs PBS; LPS, CpG or Pam3Csk; 24 hours", "description": "Mice treated with either PBS or TriDAP (100 μg/mouse/day i.p.) for 5 days. Spleen cells ([…]; 1×10^6/ml) were stimulated with medium alone (control), or with a Toll-like Receptor agonist selected from the following: the TLR4 agonist LPS (lipopolysaccharide) (100 ng/ml), the TLR9 agonist CpG (5 μg/ml), or the TL2 agonist Pam3Csk (500 ng/ml). Supernatants were collected after 24 hours and cytokine concentrations were quantified by ELISA."}, "[1]": {"test_system": "dendritic cells activating Th17 cells", "assay": "IL-17 of CD4 T cells cultured with LPS-stimulated dendritic cells with and without TriDAP", "assay_type": "cell-based, mice", "conditions": "TriDAP 100 μg/ml; LPS 10 or 100 ng/ml; KLH 20 μg/ml; 72 hours", "description": "CD4 T cells from mice immunized with MOG and LPS, were cultured in vitro with dendritic cells stimulated with LPS (10 or 100 ng/ml) with and without TriDAP (100 μg/ml) in the presence of KLH (20 μg/ml). Supernatants were collected after 72 hours and IL-17 concentrations were quantified by ELISA. *P<0.05, ***P<0.001, with and without TriDAP."}, "[2]": {"test_system": "antigen presenting cells (PECs) activating MOG-specific T cells", "assay": "IFN-γ of MOG-specific T cells cultured with irradiated PECs of treated mice as antigen presenting cells", "assay_type": "in vivo", "conditions": "TriDAP 100 μg/mouse/day i.p. 5 days vs PBS; MOG 20 μg/ml; 72 hours", "description": "Mice were treated with either PBS or TriDAP (100 μg/mouse/day i.p.) for 5 days. Peritoneal exudate stimulator cells (PECs) were irradiated and used as antigen presenting cells (APC) for MOG-specific T cells. T cells from mice immunized with MOG (Myelin oligodendrocyte glycoprotein) and CFA (1×10^6/ml) were culture with PECs (1×10^6/ml) and MOG (20 μg/ml). Supernatants were collected after 72 hours and IFN-γ concentrations were quantified by ELISA."}, "[3]": {"test_system": "PLP-specific IL-17 and IFN-γ", "assay": "PLP-specific IL-17 and IFN-γ (ELISA) of restimulated lymph node or spleen cells, relapsing-remitting EAE model", "assay_type": "in vivo", "conditions": "SJL mice, TriDAP 100 μg/mouse every 2 days from day 12, day 26, PLP 1-25 μg/ml", "description": "EAE was induced in SJL mice by immunization with […] (PLP) in complete Freund's adjuvant (CFA) followed by pertussis toxin (PT). Mice were treated with PBS (control) or TriDAP (100 μg/mouse) every 2 days from day 12. Mice were sacrificed on day 26, and lymph node or spleen cells restimulated in vitro with PLP (1-25 μg/ml). After 3 days, IL-17 and IFNγ production in supernatants were quantified by ELISA."}, "Bone marrow derived DC": {"test_system": "Bone marrow derived DC", "assay": "EBI3 and IL-27p28 mRNA in bone marrow derived DC stimulated with TLR agonists", "assay_type": "cell-based, murine", "conditions": "Tri-DAP 100 μg/ml 24 hours before LPS 10 ng/ml for 6 hours", "description": "Bone marrow derived DC (1×10^6 cell/ml) were pretreated with Tri-DAP (100 μg/ml) for 24 hours prior to stimulation with the TLR agonists LPS (10 ng/ml) and CpG (5 μg/ml), and the MOG35-55 peptide (20 μg/ml) or medium alone (control) for 6 hours. EBI3 (FIG. 8 (a)) and IL-27p28 (FIG. 8 (b)) mRNA were evaluated by real time PCR normalized to 18S rRNA. Data are shown as fold induction over DC cultured in medium only."}, "BMDC [4]": {"test_system": "BMDC", "assay": "EBI3 and IL-27p28 mRNA in BMDC pretreated with MAPK/MEK1/2 inhibitors, then TriDAP and LPS or CpG", "assay_type": "cell-based, murine", "description": "BMDC (1×10^6) were pretreated with either the MAPK inhibitor, SB203580 ([…]) or the MEK1/2 inhibitor, U0126 ([…]) for 30 minutes prior to stimulation with TriDAP […] or medium alone. After 24 hours the cells were then stimulated with LPS (lipopolysaccharide) (100 ng/ml), CpG ([…]) or medium alone. EBI3 and IL-27p28 mRNA were evaluated by real time PCR normalized to 18S rRNA. Data are shown as fold induction over DC cultured in medium only (FIG. 9 (a) and FIG. 9 (b))."}, "BMDC [5]": {"test_system": "BMDC", "assay": "IL-12p40, IL-23, IL-12p70 and IL-10 ELISA in BMDC with p38 or ERK inhibitor, Tri-DAP and LPS or CpG", "assay_type": "cell-based, murine", "description": "BMDC (1×10^6) were pretreated with the p38 inhibitor, SB203580 (5 μM—FIGS. 10-11), or the ERK inhibitor UO126 (5 μM—FIGS. 12-13) for 30 minutes prior to stimulation with Tri-DAP (100 μg/ml) or medium alone. After 2 hours the cells were then stimulated with LPS (100 ng/ml—FIGS. 10 and 12), with the TLR agonist CpG (5 μg/ml—FIGS. 11 and 13) or with medium alone. Supernatants were collected after 24 hours and IL-12p40, IL-23, IL-12p70 and IL-10 concentrations were quantified by ELISA."}, "[6]": {"test_system": "experimental autoimmune encephalomyelitis (EAE) in C57BL/6 mice", "assay": "EAE induced with MOG35-55/CFA and pertussis toxin, clinical score and body weight", "assay_type": "in vivo", "description": "EAE was induced in C57BL/6 mice by subcutaneous (s.c) injection with 150 μg of MOG35-55 in CFA supplemented with 4 mg/ml H37 Ra M. tuberculosis on day 0. All mice were injected intra-peritoneally (i.p) with Pertussis toxin (PT) on days 0 and 2. One group of mice were untreated and the second group were given Tri-DAP (100 μg/mouse) on day 0 in MOG/CFA emulsion and again on days 1, 2 and every 2 days thereafter. Clinical scores were assessed daily and body weights were recorded. Disease severity was graded as follows: grade 0: normal, grade 1: limp tail, grade 2: wobbly gait; grade 3: hind limb weakness; grade 4: hind limb paralysis; grade 5: tetraparalysis/death. † indicates control mice were sacrificed due to severity of EAE disease."}, "[7]": {"conditions": "U0126 (5 mM) 30 minutes before TriDAP, LPS 100 ng/ml after 24 hours"}, "[8]": {"conditions": "Tri-DAP 100 μg/ml pretreatment, LPS 100 ng/ml or CpG 5 μg/ml, 24 hours"}},
  "data": [
    {"smiles": "C[C@H](N)C(=O)N[C@H](CCC(=O)N[C@@H](CCC[C@@H](N)C(=O)O)C(=O)O)C(=O)O", "note": "[Tri-DAP, L-alanyl-γ-D-glutamyl-meso-diaminopimelic acid]", "values": [
      {"measurement": "IL-10 secreted by spleen cells after re-stimulation with TLR agonists", "setting": "Spleen cells", "value": "higher concentrations"},
      {"measurement": "IL-27 secreted by spleen cells after re-stimulation with TLR agonists", "setting": "Spleen cells", "value": "higher concentrations"},
      {"measurement": "TGF-beta secreted by spleen cells after re-stimulation with TLR agonists", "setting": "Spleen cells", "value": "higher concentrations"},
      {"measurement": "ability of dendritic cells to activate IL-17 production by CD4 T cells", "setting": "[1]", "value": "significant reduction"},
      {"measurement": "IFN-gamma secreted by antigen-specific T cells stimulated with APC of treated mice", "setting": "[2]", "value": "less"},
      {"measurement": "PLP-specific IL-17 levels", "setting": "[3]; spleen and lymph node cells", "value": "on-going reduction"},
      {"measurement": "PLP-specific IFN-gamma levels", "setting": "[3]; spleen cells", "value": "on-going reduction"},
      {"measurement": "LPS induced EBI3 gene expression", "setting": "Bone marrow derived DC", "value": "enhancement"},
      {"measurement": "LPS induced IL-27p28 gene expression", "setting": "Bone marrow derived DC", "value": "enhancement"},
      {"measurement": "Tri-DAP synergy with LPS for EBI3 gene expression under inhibition of ERK", "setting": "BMDC [4]; [7]", "value": "greatly enhances"},
      {"measurement": "Tri-DAP synergy with LPS for IL-27p28 gene expression under inhibition of ERK", "setting": "BMDC [4]; [7]", "value": "greatly enhances"},
      {"measurement": "Tri-DAP induced or Tri-DAP and TLR agonist induced IL-27 production on addition of an ERK inhibitor", "setting": "BMDC [4]; dendritic cells, ERK inhibitor added", "value": "significantly enhances"},
      {"measurement": "LPS and CpG production of IL-12p40", "setting": "BMDC [5]; [8]", "value": "enhances"},
      {"measurement": "LPS and CpG production of IL-12p70", "setting": "BMDC [5]; [8]", "value": "enhances"},
      {"measurement": "LPS and CpG production of IL-23", "setting": "BMDC [5]; [8]", "value": "enhances"},
      {"measurement": "LPS and CpG induced IL-10 production", "setting": "BMDC [5]; Tri-DAP 100 μg/ml, LPS 100 ng/ml or CpG 5 μg/ml, 24 hours", "value": "enhanced"},
      {"measurement": "enhancement of LPS and CpG induced IL-10 production when p38 is inhibited", "setting": "BMDC [5]; p38 inhibitor SB203580 5 μM", "value": "completely abolished"},
      {"measurement": "synergy of Tri-DAP with LPS or CpG (IL-12 family), dependence on p38", "setting": "BMDC [5]; p38 inhibitor SB203580 5 μM", "value": "partially dependent on p38"},
      {"measurement": "weight loss", "setting": "[6]; C57BL/6 EAE mice, Tri-DAP 100 μg/mouse vs untreated control", "value": "dramatic weight loss in the control mice when compared to the Tri-DAP treated mice"},
      {"measurement": "first clinical signs of EAE disease", "setting": "[6]; C57BL/6 mice, Tri-DAP 100 μg/mouse day 0 in MOG/CFA emulsion, days 1, 2 and every 2 days, untreated mice 5-6 days", "value": 11, "unit": "days post induction"},
      {"measurement": "severity of EAE disease (clinical score)", "setting": "[6]; C57BL/6 mice, Tri-DAP 100 μg/mouse, untreated peaked at 3.5-4 by day 12", "value": "lower than that observed in the untreated control mice"}
    ]}
  ]
}
